Data: article PMC12106329, “Chronic alcohol intake disrupts cytochrome P450 enzyme activity in alcoholic fatty liver disease: insights into metabolic alterations and therapeutic targets” (Frontiers in Chemistry, 2025)
Values joined by “and” are separate entries in the source; they are usually repeats but may differ in a detail not shown here. Equal entries are not always repeated. Where two headings read alike, the source gives them in different places.

Legend:
[1] = AM group, oral ethanol 12 weeks; vs NC and SC groups
Method: (§1) Sixty healthy male Sprague-Dawley rats (SD-2024-RAT-045, Beijing Vital River Laboratory Animal Technology Co., Ltd., Beijing, China) weighing 200–250 g were selected. The animals were housed under a 12-h light/dark cycle at a constant laboratory temperature of 22°C ± 2°C and relative humidity of 50% ± 10%, with access to ample food and water. Sixty rats were randomly assigned to four groups (fifteen rats per group): the normal control group (NC group), the sucrose solution group (SC group), the ethanol intake group (AM group), and the ethanol intake group with simultaneous overexpression of CYP2C11 and CYP2B6 (AM + oe-CYP2C11&CYP2B6 group). The NC group received an equal volume of normal saline daily via oral gavage. The SC group was given an 18% sucrose solution (w/v) and an equal volume of normal saline instead of ethanol. The AM group started with a 5% ethanol concentration, increasing by 5% weekly to 40% while maintaining a constant 18% sucrose concentration (v/v). The plasmid vector for gene overexpression, pCMV6-AC-GFP (LM-2069, LMAI Bio, Shanghai, China), was used to construct CYP2C11 and CYP2B6 plasmids, which were developed by Sangon Biotech (Shanghai, China). After constructing the AM rat model, overexpression plasmids were transfected into lentiviruses via tail vein injection ([Liu et al., 2020]). The lentivirus injections (5 × 10^7 IU/rat) were administered twice, with a minimum interval of 2 days between injections, starting on day 7 after the initiation of sucrose treatment ([Ma et al., 2020]).
(§2) The daily ethanol and sucrose feeding volumes were weight-adjusted for the rats, approximately 20 mL per kilogram of body weight, and continued for 12 weeks. Weekly monitoring of rat weight, observation and recording of appetite, general health status including activity level, fur condition, and behavioral changes were documented. Daily feeding amounts were meticulously recorded to accurately adjust ethanol and sucrose solution volumes. After 12 weeks, the rats were euthanized by cervical dislocation following unconsciousness induced by carbon dioxide (CO₂) inhalation. Liver tissues were dissected and stored at −80°C for subsequent histological and molecular biology analyses. Blood samples were collected, and serum was separated by centrifugation (3,000 rpm, 4°C, 15 min) and stored at −80°C for future use.
Serum-related indicators were measured using commercial assay kits (BioSino Biotechnology and Science Inc., Beijing, China) following the manufacturer’s protocols. Specifically, serum samples, substrates, and buffer solutions were prepared according to the kit instructions. The reaction mixture was incubated at 37°C for 20 min, and absorbance was measured at 340 nm to record changes. Concentrations were calculated based on a standard curve ([Li et al., 2018]).

CYP2D6 [2] = settings: AM group, oral ethanol 12 weeks; compared to NC and SC groups
Method: as §1, §2
(§3) Rat liver microsomes were isolated using differential centrifugation. Each sample was mixed with 50 mM Tris-HCl buffer, homogenized, and then centrifuged at 10,000 × g for 30 min. The supernatant was centrifuged at 100,000 × g for 1 h using a high-speed centrifuge (Himac CP100WX, Hitachi, Japan).
(§4) The activities of CYP1A2, CYP2B6, CYP2C19, CYP2C11, CYP2E1, CYP2D6, and CYP3A1 were quantitatively determined using specific labeled substrates and an NADPH generation system containing 100 mM potassium phosphate buffer, 1 mM NADP (N1630, Sigma, United States), 10 mmol/L G-6-P (G7877, Sigma, United States), 0.1 U/mL G-6-PDH (G8529, Sigma, United States), and 5 mM MgCl2. The NADPH generation system was added to microsomes (total protein concentration of 1 mg/mL) with a total volume of 190 μL. Each reaction system was supplemented with 10 μL of substrate.

CYP2B6 [3] = settings: AM group, oral ethanol 12 weeks
Method: as §1, §2, §3, §4

CYP2E1 [4] = settings: AM group, oral ethanol 12 weeks; compared to NC and SC groups
Method: as §1, §2, §3, §4

CYP1A2 [5] = settings: AM group, oral ethanol 12 weeks; compared to NC and SC groups
Method: as §1, §2, §3, §4

CYP2C11 [6] = settings: AM group, oral ethanol 12 weeks
Method: as §1, §2, §3, §4

CYP3A1 [7] = settings: AM group, oral ethanol 12 weeks; compared to NC and SC groups
Method: as §1, §2, §3, §4

CYP2D6 [8] = settings: AM group, oral ethanol 12 weeks
Method: as §1, §2
(§5) Liver samples were lysed using RIPA lysis buffer (P0013B, Beyotime, China). The total protein concentration was evaluated using the BCA protein assay kit (AR0146, Doctor’s Scientific Inc., China). SDS-PAGE was employed to separate total proteins, followed by protein transfer onto pre-wetted PVDF membranes with methanol (IPVH00010, Millipore Corp, United States). Non-specific protein blocking was carried out at room temperature for 3 h using TBST solution (BL315B, Boist, China) containing 5% milk. The target proteins were probed with primary antibodies overnight on […], followed by three washes with TBST/Tween 20 (0.075%) for 15 min each and subsequent incubation with labeled secondary antibodies for 1 h before washing. Protein visualization was performed using the Millipore Immobilon Western Chemiluminescent HRP substrate. The primary antibodies used in the experiments were polyclonal rabbit anti-human CYP450CYP1A2, 2B6, 2C11, 2C19, 2E1, 2D6, 3A1 (bs-20720R, Bioss, China) at a 1:300 dilution. The secondary antibodies, goat anti-mouse or anti-rabbit horseradish peroxidase conjugates, were diluted at 1:10,000 in TBST containing 5% milk. β-actin served as the loading control. The experiments were repeated three times.

ALDH2 = settings: AM group, oral ethanol 12 weeks
Method: as §1, §2, §5

CYP2B6 [9] = settings: AM group, oral ethanol 12 weeks; remark: listed apart in the source
Method: as §1, §2, §5

CYP2C19 = settings: AM group, oral ethanol 12 weeks
Method: as §1, §2, §5

CYP2E1 [10] = settings: AM group, oral ethanol 12 weeks
Method: as §1, §2, §5

P-gp = settings: AM group, oral ethanol 12 weeks
Method: as §1, §2, §5

CYP1A2 [11] = settings: AM group, oral ethanol 12 weeks
Method: as §1, §2, §5

CYP2C11 [12] = settings: AM group, oral ethanol 12 weeks; remark: listed apart in the source
Method: as §1, §2, §5

CYP3A1 [13] = settings: AM group, oral ethanol 12 weeks; compared to NC and SC groups; remark: listed apart in the source
Method: as §1, §2, §5

CYP2B6 mRNA = settings: AM group, oral ethanol 12 weeks; compared to NC and SC groups
Method: as §1, §2
(§6) Total RNA was extracted from rat liver tissue using TRIzol reagent (15596026, Invitrogen, United States). cDNA was synthesized using the cDNA synthesis kit (RR036A, Takara, Japan). Specific gene expression was detected by combining the PCR master mix (206143, Qiagen, United States) with the Pikoreal 96 real-time PCR system (QPCR-96X, Thermo Scientific, United States). Quantitative PCR analysis was performed for CYP450 enzyme-related genes with the endogenous gene β-actin as a reference, and the relative mRNA expression levels were quantified by calculating the 2^−ΔΔCt values. All experiments were repeated three times.

CYP1A2 mRNA = settings: AM group, oral ethanol 12 weeks; compared to NC and SC groups
Method: as §1, §2, §6

CYP2E1 mRNA = settings: AM group, oral ethanol 12 weeks; compared to NC and SC groups
Method: as §1, §2, §6

CYP2D6 mRNA = settings: AM group, oral ethanol 12 weeks; compared to NC and SC groups
Method: as §1, §2, §6

CYP3A1 mRNA = settings: AM group, oral ethanol 12 weeks; compared to NC and SC groups
Method: as §1, §2, §6

CYP2C11 mRNA = settings: AM group, oral ethanol 12 weeks; compared to NC and SC groups
Method: as §1, §2, §6

rat liver = settings: AM group: oral ethanol 5% rising 5% weekly to 40% in 18% sucrose, about 20 mL/kg daily, 12 weeks; vs NC and SC groups
Method: as §1, with “The plasmid vector for gene overexpression, pCMV6-AC-GFP (LM-2069, LMAI Bio, Shanghai, China), was used to construct CYP2C11 and CYP2B6 plasmids, which were developed by Sangon Biotech (Shanghai, China). After constructing the AM rat model, overexpression plasmids were transfected into lentiviruses via tail vein injection ([Liu et al., 2020]). The lentivirus injections (5 × 10^7 IU/rat) were administered twice, with a minimum interval of 2 days between injections, starting on day 7 after the initiation of sucrose treatment ([Ma et al., 2020]).” left out
The daily ethanol and sucrose feeding volumes were weight-adjusted for the rats, approximately 20 mL per kilogram of body weight, and continued for 12 weeks. […] Daily feeding amounts were meticulously recorded to accurately adjust ethanol and sucrose solution volumes. […]

ROS = settings: AM group, oral ethanol 12 weeks; vs NC and SC groups
Method: Reactive oxygen species (ROS) levels were detected using the fluorescent dye 2′,7′-dichlorodihydrofluorescein diacetate (DCF) (HY-D0940, Abcam, United Kingdom). […] Endothelial cells (2 × 10^4 cells) were seeded on coverslips in six-well plates and cultured overnight. The cells were treated with H2O2 (200 μM) the next day for 24 h. After treatment, the coverslips were washed with ice-cold Hank’s Balanced Salt Solution (HBSS) (H8264, Sigma Aldrich, Shanghai, China) and incubated with 100 μM DCFDA at 37°C for 30 min. After washing, the coverslips were mounted onto slides and imaged using a multiphoton confocal microscope (A1R, Nikon, United States) with a ×100 objective. Images were analyzed using Nikon Imaging Software NIS-Element.

[14] = for AUC0-∞ / Cmax / T1/2 / T1/2 el / Tmax / MRT / AUC0-L∞: oral, serum, final dosing after 12 weeks, mean; for AUC0-L∞: time zero to last measurable concentration
Method: Rats were administered orally with the same doses of normal saline and ethanol in the NC, SC, and AM groups, following the same method. After 12 weeks, blood samples were collected from the rats at specified time points (0.5, 1, 2, 4, 6, 8, and 12 h post-dosing) during the final dosing. The blood samples were centrifuged to separate serum and then stored at −80°C for further use.
Utilizing liquid chromatography-mass spectrometry (LC-MS) technology, the concentrations of ethanol and its metabolites in serum samples were analyzed. Analyze the pharmacokinetic parameters of the drug, such as the maximum plasma concentration (Cmax), the mean residence time (MRT) of ethanol in the body, and the bioavailability of ethanol. Data processing was conducted using specialized software XCMS, involving peak identification, integration, and normalization. Multivariate statistical analyses were performed on metabolite data to reveal metabolic differences between groups, such as principal component analysis (PCA) and orthogonal partial least squares discriminant analysis (OPLS-DA). Metabolites were annotated and compared with known databases (HMDB, METLIN) to confirm their identities. Differences in pharmacokinetic parameters among the NC, SC, and AM groups were compared to evaluate the effects of alcohol exposure and CYP450 enzymes, aiming to identify metabolite variances.

[15] = liver, β-actin loading control, single replicates
[16] = SC group (sucrose solution) rats
[17] = rat serum after long-term alcohol exposure

CCO [ethanol]
MDA level [1]: significantly increased
SOD level [1]: significantly decreased
serum ALT level [1]: significantly increased
serum AST level [1]: significantly increased
total cholesterol (TC) level [1]: significantly increased
triglyceride (TG) level [1]: significantly increased
CYP2D6 enzyme activity in liver microsomes (CYP2D6 [2]): significantly increased
CYP2B6 enzyme activity in liver microsomes (CYP2B6 [3]): notable decreases
CYP2E1 enzyme activity in liver microsomes (CYP2E1 [4]): significantly increased
CYP1A2 enzyme activity in liver microsomes (CYP1A2 [5]): significantly increased
CYP2C11 enzyme activity in liver microsomes (CYP2C11 [6]): notable decreases
CYP3A1 enzyme activity in liver microsomes (CYP3A1 [7]): significantly increased
CYP2D6 protein expression, change (CYP2D6 [8]; compared to NC and SC groups): higher
CYP2D6 Relative protein expression (CYP2D6 [8]; [15]): 3.37 and 3.45 and 2.83
ALDH2 protein level, change (ALDH2; compared with NC and SC groups): increased
ALDH2 Relative protein expression (ALDH2; [15]): 1.34 and 1.48 and 1.49
CYP2B6 protein level, change (CYP2B6 [9]; compared to NC and SC groups): significantly lower
CYP2B6 Relative protein expression (CYP2B6 [9]; [15]): 0.28 and 0.3 and 0.29
CYP2C19 protein expression, change (CYP2C19; across all groups): no significant difference
CYP2C19 Relative protein expression (CYP2C19; [15]): 1.22 and 1.39 and 1.27
CYP2E1 protein expression, change (CYP2E1 [10]; compared to NC and SC groups): higher
CYP2E1 Relative protein expression (CYP2E1 [10]; [15]): 1.88 and 2.01 and 1.78
P-gp protein expression, change (P-gp): significant increase
P-gp Relative protein expression (P-gp; [15]): 1.61 and 1.33 and 1.52
CYP1A2 protein expression, change (CYP1A2 [11]; compared to NC and SC groups): higher
CYPIA2 Relative protein expression (CYP1A2 [11]; [15]): 1.50 and 1.52 and 1.65
CYP2C11 protein level, change (CYP2C11 [12]; compared to NC and SC groups): significantly lower
CYP2C11 Relative protein expression (CYP2C11 [12]; [15]): 0.76 and 0.74 and 0.78
CYP3A1 protein expression, change (CYP3A1 [13]): higher
CYP2B6 mRNA level in liver (CYP2B6 mRNA): significantly lower
CYP1A2 mRNA level in liver (CYP1A2 mRNA): significantly higher
CYP2E1 mRNA level in liver (CYP2E1 mRNA): significantly higher
CYP2D6 mRNA level in liver (CYP2D6 mRNA): significantly higher
CYP3A1 mRNA level in liver (CYP3A1 mRNA): significantly higher
CYP2C11 mRNA level in liver (CYP2C11 mRNA): significantly lower
liver histology (H&E) (rat liver): macrovesicular steatosis
intracellular ROS level (ROS): significant increase
AUC0-∞ ([14]; AM group (alcohol intake) rats): 29120 ng·h/mL
Cmax ([14]; AM group (alcohol intake) rats): 2375 ng/mL
T1/2 ([14]; AM group (alcohol intake) rats): 2.88 h
T1/2 el ([14]; AM group (alcohol intake) rats): 17.04 h
Tmax ([14]; AM group (alcohol intake) rats): 4.76 h
MRT ([14]; AM group (alcohol intake) rats, p < 0.01 vs NC): 24.48 h
AUC0-L∞ ([14]; AM group (alcohol intake) rats): 27820 ng·h/mL
AUC0-∞ ([14]; NC group (normal control) rats): 22400 ng·h/mL
Cmax ([14]; NC group (normal control) rats): 1900 ng/mL
MRT ([14]; NC group (normal control) rats): 20.4 h
T1/2 ([14]; NC group (normal control) rats): 2.4 h
T1/2 el ([14]; NC group (normal control) rats): 14.2 h
Tmax ([14]; NC group (normal control) rats): 4.75 h
AUC0-L∞ ([14]; NC group (normal control) rats): 21400 ng·h/mL
Tmax, difference among the groups ([14]; NC, SC and AM groups, p > 0.05): no significant difference
AUC0-∞ [14, 16]: 21300 ng·h/mL
Cmax [14, 16]: 1890 ng/mL
MRT [14, 16]: 19.8 h
T1/2 [14, 16]: 2.35 h
T1/2 el [14, 16]: 13.5 h
Tmax [14, 16]: 4.68 h
AUC0-L∞, AM group vs other groups [14, 17]: significantly increased
AUC0-∞, AM group vs other groups [14, 17]: significantly increased
clearance, AM group vs other groups ([14]; rat, after long-term alcohol exposure): lower
